US9937115B2, “Oral care compositions with improved flavor” (priority 2010, dated 2018)

What was measured:
TRPA1 receptor [1] = biological target: T1, TRPA1 receptor (Homo sapiens, UniProt O75762); format: cell-based; conditions: percentage of the control (allyl isothiocyanate) calcium count, material dissolved in DMSO at 100 micromolar, HEK cells with TRPA1;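 for TRPA1 Pre-incubation: values above 100 mean more active than the control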
T1 construct: expressed in transfected cells; host or cells: HEK cell line

TRPA1 receptor [2] = biological target: T1, TRPA1 receptor; assay: cell-based; set-up: activation: dose or concentration left out as unconfirmed; conditions: percentage of the control (allyl isothiocyanate) calcium count, material dissolved in DMSO at 100 micromolar, HEK cells with TRPA1; for activation at 100 µM / activation: HEK293; for TRPA1 Direct addition / activation at 100 µM: direct addition; for activation at 100 µM: read-out: TRPA1 Direct addition; for activation: pre-incubation, read-out: TRPA1 Pre-incubation
Procedure, shortened: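 HEK cells expressing TRPA1 were treated with test compounds dissolved in DMSO at 100 micromolar, with allyl isothiocyanate as positive control. Agonism was read on a FLIPR as calcium-dye fluorescence counts above background. A TRPA1 activator was defined as giving at least 1000 counts above background at 1 mM.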

T1 sequence (O75762 whole entry): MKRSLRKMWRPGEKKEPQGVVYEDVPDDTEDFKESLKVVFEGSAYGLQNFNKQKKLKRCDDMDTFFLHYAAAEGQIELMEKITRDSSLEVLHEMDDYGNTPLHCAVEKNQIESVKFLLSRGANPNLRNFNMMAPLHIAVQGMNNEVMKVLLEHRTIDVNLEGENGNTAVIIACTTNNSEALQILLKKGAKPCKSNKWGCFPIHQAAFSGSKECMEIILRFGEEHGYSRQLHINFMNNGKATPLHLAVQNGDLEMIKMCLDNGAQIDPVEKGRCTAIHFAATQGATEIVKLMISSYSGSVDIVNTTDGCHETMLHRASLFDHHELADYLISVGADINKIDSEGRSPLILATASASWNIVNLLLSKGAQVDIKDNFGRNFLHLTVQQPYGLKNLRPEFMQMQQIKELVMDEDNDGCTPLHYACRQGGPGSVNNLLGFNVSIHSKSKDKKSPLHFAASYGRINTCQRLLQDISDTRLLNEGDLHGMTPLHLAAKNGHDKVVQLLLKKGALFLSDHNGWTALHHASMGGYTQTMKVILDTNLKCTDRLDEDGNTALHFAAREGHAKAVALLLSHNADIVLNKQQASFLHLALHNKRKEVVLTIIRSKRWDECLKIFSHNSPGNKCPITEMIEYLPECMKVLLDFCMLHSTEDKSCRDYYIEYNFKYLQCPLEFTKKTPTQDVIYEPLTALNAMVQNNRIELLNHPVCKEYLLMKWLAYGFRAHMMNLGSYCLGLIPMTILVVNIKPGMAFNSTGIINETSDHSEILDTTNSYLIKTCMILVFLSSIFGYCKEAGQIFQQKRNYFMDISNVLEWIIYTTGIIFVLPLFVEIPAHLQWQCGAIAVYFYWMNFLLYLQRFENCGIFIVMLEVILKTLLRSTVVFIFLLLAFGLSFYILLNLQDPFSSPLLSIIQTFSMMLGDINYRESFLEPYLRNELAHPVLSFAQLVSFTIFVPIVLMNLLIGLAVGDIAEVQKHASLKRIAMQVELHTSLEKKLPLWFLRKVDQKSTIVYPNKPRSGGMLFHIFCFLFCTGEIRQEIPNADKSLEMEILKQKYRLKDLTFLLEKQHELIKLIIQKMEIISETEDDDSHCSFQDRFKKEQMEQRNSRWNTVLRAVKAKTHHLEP

Compound | TRPA1 Pre-incubation (TRPA1 receptor [1]) [%] | TRPA1 Direct addition (TRPA1 receptor [2]) [%] | activation at 100 µM (TRPA1 receptor [2]) [%] | activation (TRPA1 receptor [2]) [%]
COc1ccc(CC(C)=O)cc1 [1-(P-Methoxyphenyl)-2-Propanone] | 77.63 | 0.49 | – | –
CC/C=C\CCO [Hexen-1-ol] | 80.84 | 0.06 | – | –
CC1C2CC(CC2C2CCCC(O)C2)C1(C)C (stereo not drawn) [Sandela] | 94.17 | 25.65 | – | –
CCCc1ccc(O)c(OC)c1 [Dihydroeugenol] | 103.71 | 0.07 | – | –
CCC1OC(C)=C(O)C1=O (stereo not drawn) [2-Ethyl-4-Hydroxy-5-Methyl-3(2) Furanone] | 78.56 | −1.06 | – | –
CC(=O)O[C@@H]1C[C@H](C)CC[C@H]1C(C)C [Laevo Menthyl Acetate] | 87.91 | −9.39 | – | –
CCCCCC(C)=O [Heptanone] | 69.5 | −0.04 | – | –
2-phenyl propyl tetrahydrofuran | 108.49 | −0.15 | – | –
Jasmonyl | 68.48 | 7.36 | – | –
CCOC(=O)c1ccccc1N [Ethyl Anthrailate] | 61.95 | 39.71 | – | –
Cc1ccc(C=O)cc1 [P-Totylaldehyde] | 60.52 | 11.1 | – | –
CCCC/C=C/C=C/C=O [trans,trans,-2,4-Nonadienal] | −4.24 | 112.15 | – | –
Rhodinol 70 Spec 59508 | 87.57 | −9.13 | – | –
C/C=C/c1ccc(OC(=O)Cc2ccccc2)c(OC)c1 [Iso-eugenyl phenylacetate] | 42.19 | 29.74 | – | –
CCC=CCCOC(=O)CC(C)C [3-Hexenyl-3-Methylbutanoate] | 88.62 | −1.61 | – | –
C=C(OCC)C1C(C)(C)CC(=O)CC1(C)C [Kephalis] | 83.88 | −0.23 | – | –
[Cl-].[Cl-].[Zn+2] [Zinc Chloride] | 21.61 | 5.46 | – | –
4-Ethylguaiacol | 53.53 | 55.61 | – | –
CCOC(=O)C1OC1(C)c1ccccc1 (stereo not drawn) [Ethyl 3-Methyl-3-Phenylglycidate] | 77.42 | 23.6 | – | –
CCOC(=O)C1OC1c1ccccc1 (stereo not drawn) [Ethyl-3-Phenylglycinate] | 54.22 | 12.13 | – | –

Compound | TRPA1 Pre-incubation (TRPA1 receptor [1]) [%] | TRPA1 Direct addition (TRPA1 receptor [2]) [%] | activation at 100 µM (TRPA1 receptor [2]) [%] | activation (TRPA1 receptor [2]) [%]
CC(=O)/C=C/C1=C(C)CCCC1(C)C [Beta Ionone] | 75.35 | −2.88 | – | –
CC1=C(/C=C/C(C)O)C(C)(C)CCC1 (stereo not drawn) [Beta-ionol] | 114.23 | −0.01 | – | –
C=C[C@](C)(O)CCC=C(C)C [L-Linalool] | 65.28 | −11.37 | – | –
CC(C)[C@@H]1CC[C@@H](C)CC1=O [L-Menthone] | 70.56 | 4.4 | – | –
C=C(C)C1CC=C(C)C(OC(=O)CC)C1 (stereo not drawn) [Carvyl Propionate] | 105.07 | −0.57 | – | –
Cc1nc(C)c(C)s1 [,2,4,5-Trimethythiazole] | 64.86 | −1.43 | – | –
COC(=O)CCCc1ccccc1 [Methyl 4-Phenyl butyrate] | 98.83 | −0.22 | – | –
CCOC(=O)CSC [Ethyl Methylthio Acetate] | 55.69 | −0.06 | – | –
CC(=O)/C=C/C1C(C)=CCCC1(C)C (stereo not drawn) [Alpha-Ionone] | 111.19 | −0.9 | – | –
CC(=O)/C(C)=C/C1C(C)=CCCC1(C)C (stereo not drawn) [Gamma Methyl Ionone] | 23.55 | 4.96 | – | –
CC1=C(CCC(C)O)C(C)(C)CCC1 (stereo not drawn) [Dihydro-beta-ionol] | 97.15 | −0.33 | – | –
Cc1ccc(C=O)c(O)c1 [2_Hydroxy-4-Methyl Benzaldehyde] | 68.24 | 0.4 | – | –
CC(=O)OCCCc1ccccc1 [Phenyl Propyl Acetate] | 69.3 | −9.54 | – | –
C/C(C=O)=C\c1ccccc1 [Alpha-Methyl-Trans-Cinnamaldehyde] | 72.88 | 37.95 | – | –
C=CC(C)(O)CCC=C(C)CC (mixture of isomers) [Ethyl Linalool] | 63.35 | −0.1 | – | –
C=C(C)[C@@H]1CCC2=CCC[C@@H](C)[C@]2(C)C1 [Valencene] | 94.99 | 0.1 | – | –
C=CCCC(=O)/C=C/C1C(C)=CCCC1(C)C (stereo not drawn) [Allyl Alpha-Ionone] | 64.99 | 0.55 | – | –
C=C(C)CCCC(C)CCOC(C)=O (stereo not drawn) [Rhodinyl Acetate] | 66.4 | −17.14 | – | –
Phellandrene | 52.15 | 1.65 | – | –
CC(C)C(=O)O [Isobutryic Acid] | 78.64 | 1.15 | – | –

Compound | TRPA1 Pre-incubation (TRPA1 receptor [1]) [%] | TRPA1 Direct addition (TRPA1 receptor [2]) [%] | activation at 100 µM (TRPA1 receptor [2]) [%] | activation (TRPA1 receptor [2]) [%]
CCCCOC(=O)C(C)OC(=O)CCC (stereo not drawn) [Butyl Butyryllactate] | 39.69 | −1.54 | – | –
CC1CCC(C(C)(C)S)C(=O)C1 (stereo not drawn) [P-Mentha-8-Thiol-3-one] | 73.82 | 46.29 | – | –
[Cl][Sn][Cl] [Stannous Chloride] | 54.35 | −14.1 | – | –
C=CCCCCCCCCC=O [Undecylenic Aldehyde] | 52.14 | −14.32 | – | –
CCOC(=O)/C=C/c1ccccc1 [Ethyl Cinnemate] | 70.82 | 0.45 | – | –
Iso Jasmone | 58.16 | 11.48 | – | –
Roselea Spec 59514 | 71.26 | 14.53 | – | –
C=C/C(C)=C/C/C=C(\C)CCC=C(C)C [Farmesene] | 90.8 | −0.32 | – | –
CCOc1cc(C2OCC(C)O2)ccc1O (stereo not drawn) [ethyl vanillin propylene glycol acetal] | 103.19 | 0 | – | –
CCCC(=O)OCc1ccc(OC)cc1 [Anisyl butyrate] | 112.61 | −0.03 | – | –
CC(=O)OC1C2(C)CCC(C2)C1(C)C (stereo not drawn) [Fenchyl Acetate] | 59.08 | −0.1 | – | –
CCCC1CCC(=O)O1 (stereo not drawn) [Gamma Heptalactone] | 51.03 | 1.18 | – | –
CCCCCCCCCCCC=O [Lauric Aldehyde] | 85.96 | 19.05 | – | –
CC(C)=CCC/C(C)=C/C=O [Lemarome] | 41.41 | 80.13 | – | –
CCCC(=O)OC(C)c1ccccc1 (stereo not drawn) [methyl benzyl butyrate] | 116.22 | −0.34 | – | –
Benzaldehyde Glyceryl Acetal | 30.62 | −2.74 | – | –
CCC(C)C(=O)OCCC(C)C (stereo not drawn) [3-Methylbutyl-2-Methylbutanoate] | – | – | -1.18 | 71.4
CCCCCCCC=O [Octanal] | – | – | -11 | 87.9
COc1ccc(CCC(C)=O)cc1 [4-(4-Methoxyphenyl)-2-Butanone] | – | – | -3.93 | 71.3
CCCCCCCCCCCC(=O)O [Lauric Acid] | – | – | -2.82 | 96
